Results: patent publication US20040157799A1, “Pharmaceutical uses of bisphosphonates” (priority 2004, published 2004)

Experiments:
[1] = tested on: prostate cancer patients with a history of metastatic bone disease; assay: double-blind, placebo-controlled clinical study of zoledronic acid: skeletal-related events; assay type: in vivo, human; conditions: for patients with at least one skeletal-related event: i.v. every 3 weeks, placebo 44.2% (N=208); for patients with pathologic fractures: placebo 22.1%; for median time to the first skeletal-related event: placebo 320 days
From the text: Skeletal-related events (SREs) are defined as pathologic bone fracture events, spinal cord compression events, surgery to bone, radiation therapy to bone (including the use of radioisotopes) and a change of antineoplastic therapy to treat bone pain. Thus, SREs are the primary end-points in this study. The key efficacy endpoints are the proportion of patients having at least one SRE and the time to first SRE.
Secondary objectives are to assess the effect of zoledronic acid therapy on pain scores, analgesic use, performance status, Quality of Life scores, time to termination of active study participation, and to assess the safety and tolerability of zoledronate. Changes in bone resorption and formation markers are also evaluated. Bone mineral density measurements are evaluated in patients at selected clinical centers. In addition, time to progression of disease in bone and time to overall progression of disease are evaluated.
This study is an international, multicenter, randomized, double-blind, placebo-controlled, parallel study. […] The rising serum PSA level is documented by three consecutively rising serum PSA measurements (i.e., the third PSA level is to be>the second PSA level which is >the first PSA level which is >the nadir serum PSA concentration achieved during first-line hormonal therapy for metastatic prostate cancer), each separated from the other by at least two weeks. The rising serum PSA level represents an “early” event in the development of progressive metastatic disease.
Patients are randomized in a double-blind fashion to receive either zoledronate 4 mg intravenously, or zoledronate 8 mg intravenously, or a placebo intravenous infusion every three weeks in addition to their antineoplastic therapy. The randomized treatment assignment ratio is to be 1:1:1. In addition, all patients are to receive 500 mg of calcium orally and a multivitamin tablet (containing 400-500 I.U. of vitamin D) daily throughout the study.
The occurrence of skeletal-related events (SRE's) is collected throughout the trial for each patient in order to determine the proportion of patients experiencing at least one SRE, the time to the first SRE, and the skeletal morbidity rate (see section 4). Time to progression of disease in bone is assessed centrally (central radiologist) by review of serial bone radiographic studies. Time to overall progression of disease is determined by the patient's treating physician: by evaluating the central assessments (central radiologist) of serial bone radiographic studies; by evaluating the central assessments (central radiologist) of appropriate serial radiographic studies of non-skeletal tumor sites, if present; by evaluating serial serum PSA levels; and by evaluating serial patient weight measurements. Quality of Life, performance status, health care utilization and productivity loss data, and pain, and analgesic use scores are determined serially throughout the study. This information is also collected for those patients who discontinue active therapy within 24 months from the date of randomization into the study. Information about adverse events which occur during the patient's clinical course is collected throughout the study.
The study is made up of two phases, phase 1, the Efficacy and Safety Phase, and phase 2, the Extension Phase. The primary efficacy analysis is performed at the completion of phase 1, the Efficacy and Safety Phase, which consists of 60 weeks (20 cycles) of study treatment. Phase 2 consists of an additional 36 weeks (12 cycles) of study therapy. The primary purpose of phase 2 is to obtain long-term zoledronate treatment safety and survival data, however efficacy data will continue to be collected. […] No interim analyses are planned. […]

[2] = tested on: prostate cancer cell lines; conditions: in vitro treatment (Brown et al.; Lee et al.); cited from earlier work
[3] = tested on: subcutaneous prostate cancer cell line tumours; conditions: subcutaneous prostate cancer cell line tumours (Corey et al.); cited from earlier work

## O=P(O)(O)C(O)(Cn1ccnc1)P(=O)(O)O [zoledronic acid, 2-(imidazol-1yl)-1-hydroxyethane-1,1-diphosphonic acid]
[1]; 4 mg 15-minute infusions every 3 weeks, metastatic prostate cancer refractory to hormonal therapy
  effect on skeletal-related events: significantly reduce skeletal-related events
[1]; 4 mg given as a 15-minute infusion
  tolerability: well-tolerated
[1]; prostate cancer patients, double blind, placebo-controlled
  efficacy in the treatment of bone metastases vs. placebo: statistically significant efficacy benefit over placebo
[1]; zoledronic acid 4 mg group (N=214), p=0.021 vs. placebo
  patients with at least one skeletal-related event: 33.2%
[1]; zoledronic acid 4 mg group, p=0.015 vs. placebo
  patients with pathologic fractures: 13.1%
[1]; zoledronic acid 4 mg group, p=0.011 vs. placebo
  median time to the first skeletal-related event: not reached
[1]; zoledronic acid 8/4 mg group (N=221), p=0.222 vs. placebo
  patients with at least one skeletal-related event: 38.5%
[1]; zoledronic acid 8/4 mg group, p=0.054 vs. placebo
  patients with pathologic fractures: 14.9%
[1]; zoledronic acid 8/4 mg group, p=0.491 vs. placebo
  median time to the first skeletal-related event: 363 days
[2]
  growth of prostate cancer cell lines: significantly reduced the growth of the cell lines
[3]
  tumour volume: no significant decrease in tumour volume
